We go through 15 molecules from US20090042874A1, “ANTIDEPRESSANT HETEROARYL DERIVATIVES OF HETEROCYCLE-FUSED BENZODIOXANS” (WYETH, priority 2007, published 2009).

Counter-ions that a name gives are not always drawn. Like-named read-outs stand apart in the source and are kept apart here.

For one assay, the target named is T1, h-5HT1A (Homo sapiens, UniProt P08908).
T1 construct: expressed in transfected cells; host or cells: CHO cells grown in suspension in a 10 liter bioreactor
T1 sequence (P08908 1-422): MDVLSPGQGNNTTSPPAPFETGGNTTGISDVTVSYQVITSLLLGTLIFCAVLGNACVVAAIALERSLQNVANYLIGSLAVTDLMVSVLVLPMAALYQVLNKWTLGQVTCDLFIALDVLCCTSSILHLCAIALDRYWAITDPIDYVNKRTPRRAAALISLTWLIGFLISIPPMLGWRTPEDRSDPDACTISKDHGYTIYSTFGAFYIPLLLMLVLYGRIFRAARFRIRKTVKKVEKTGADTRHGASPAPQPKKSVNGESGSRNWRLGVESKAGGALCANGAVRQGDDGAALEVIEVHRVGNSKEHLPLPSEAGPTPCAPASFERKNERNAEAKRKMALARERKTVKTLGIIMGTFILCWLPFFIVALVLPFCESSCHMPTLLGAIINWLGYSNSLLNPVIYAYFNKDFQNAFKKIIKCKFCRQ
Briefly: 5HT1A receptor SPA binding assay, [3H]-OH DPAT, CHO cell membranes. The settings on record: [3H]-OH DPAT 3 nM. On the procedure: Determination of the Inhibitory Activity of Compounds at the Serotonin 5HT1A Receptor Subtype using Scintillation Proximity Assay (SPA) Technology
Cells: CHO cells expressing the serotonin 5HT1A receptor subtype were grown in suspension in 10 liter bioreactor and supplied as a wet cell pellet
Binding experiments are performed in a total volume of 200 μl using a 96 well microtiter plate format (Packard Optiplate). On the day of the assay, the membranes are thawed and resuspended with enough 50 mM Tris (HCI) pH 7.5, 10 mM MgCl2, 0.2 mM EDTA, 10 μM pargyline, and 0.1% ascorbate (assay buffer) to achieve a protein concentration of 800 μg/ml. To each well of the microtiter plate, 20 μl of 10× test compound in water containing 3.3% DMSO, 3 nM of [3H]-OH DPAT (Amersham, SA: 200 Ci/mmol), 80 μg cell membrane and assay buffer are combined to achieve a volume of 150 μl. Assay buffer and 10 μM cold 5-HT are substituted for the test compound in separate wells to define ‘total’ and ‘nonspecific’ bindings, respectively. The incubation period is initiated by the addition of 50 μl of 10 mg/ml PVT WGA SPA beads (RPNQ0060, Amersham GE Healthcare) resuspended in assay buffer for a final concentration of 0.5 mg/well. The plates are sealed and gently shaken at room temperature using an orbital shaker (setting 1.5) until equilibrium is achieved (2 h-overnight incubation). Radioactivity (CPM) is measured by Packard TopCount (1 min counting time/well).
Specific binding is described as the total radioactivity bound less the amount bound in the presence of 10 μM 5HT, referred to as non-specific binding (NSB). Binding in the presence of varying concentrations of test compounds is expressed as percent of specific binding in the absence of compound.
{(Bound−NSB)/(Total−NSB)}×100=% Total
Regression analysis of % bound data from ten concentrations is performed in GraphPad Prism, XL Fit or equivalent software. IC50 values are calculated using a four-parameter logistic curve fitting model and Ki values are calculated by the Cheng-Prusoff equation below: […]
where L is the nM concentration of the radioactive ligand used and the Kd is the dissociation constant of the ligand for the receptor. The Kd for [3H-OH DPAT in the SPA binding format is 3 nM. • Single dose
Percent inhibition: The displacement of […] by the test compound at h5-HT1A as determined by: [(Total DPM−compound DPM)/(Total DPM−NSB DPM)]×100. • Conc.: concentration of test compound; NBS: non-specific binding; DPM: disintegrations per min

The target of assay [1] is T2, Human Serotonin Transporter (h5HT-T) (Homo sapiens, UniProt P31645). The conditions noted are these: read-out: human SERT SPA binding assay Ki.
T2 sequence (P31645 whole entry): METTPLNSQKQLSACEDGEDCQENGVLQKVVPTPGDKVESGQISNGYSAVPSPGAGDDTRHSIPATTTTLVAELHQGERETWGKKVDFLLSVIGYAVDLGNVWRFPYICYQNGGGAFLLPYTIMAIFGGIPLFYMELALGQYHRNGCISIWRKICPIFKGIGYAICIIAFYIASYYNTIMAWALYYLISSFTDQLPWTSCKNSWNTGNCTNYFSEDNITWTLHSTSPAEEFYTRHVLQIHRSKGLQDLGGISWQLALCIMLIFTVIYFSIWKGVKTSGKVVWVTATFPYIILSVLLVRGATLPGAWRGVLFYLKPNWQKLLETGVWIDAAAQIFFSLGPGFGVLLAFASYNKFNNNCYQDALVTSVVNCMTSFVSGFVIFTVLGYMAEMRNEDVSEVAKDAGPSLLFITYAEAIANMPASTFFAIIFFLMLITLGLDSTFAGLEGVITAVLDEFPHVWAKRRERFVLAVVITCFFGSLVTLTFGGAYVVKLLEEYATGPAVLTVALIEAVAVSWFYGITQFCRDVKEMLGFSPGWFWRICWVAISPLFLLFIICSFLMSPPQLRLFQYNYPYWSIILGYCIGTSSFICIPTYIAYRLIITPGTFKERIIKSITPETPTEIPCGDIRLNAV
Description: (§1) MEDIA REAGENTS: Dulbecco's Modified Eagle Medium (DMEM) with High Glucose, L-Glutamine, 110 mg/L Sodium Pyruvate, Pyridoxine Hydrochloride containing: • a) 10% Fetal Bovine Serum, Heat-inactivated and Dialyzed (10,000 Mol Wt.) • b) 1% Pennicilin-streptomycin • c) 100 μg/ml Geneticin/G418 • 2. […] Immediately add 15 ml Cell Culture medium to inactivate trypsin and mix well. […] (eg. 1×T175 flask can seed 20×T175 flasks) • g) Incubate cells at 37° C., 5% CO2, in a humidified incubator. NOTE: Cells will grow to confluence within 3-4 days.
(§2) Cells are resuspended in 3 volumes of 50 mM Tris-HC1 (pH 7.4) to 1 volume of initial cell fraction • 2. Partially homogenize cells by swirling or by using transfer pipetor to make cell solution more homogenous and aliquot solution into 4 clear 50 ml polypropylene centrifuge tubes • 3. Tubes are balanced and spun down at 2,000 rpm for 10 minutes at 4° C. using the HS-4 rotor (rotor code 8) • 4. Supernatant is decanted and pellets resuspend in an additional 75 ml of 50 mM Tris-HCl (pH 7.4)→˜18 ml Tris to each of 4 tubes • 5. Spin cells again at 5, 000 rpm for minutes at 4° C. using the HS-4 rotor and decant supernatant • 6. Resuspend final pellts in appropriate volume of 50 nM Tris to yield protein concentration of ˜6 mg/ml • add 100 ml Tris to original cell suspension of 35 ml • add ˜72 ml; Tris to original cell suspension of 25 ml • 7. Add the appropriate final volume and split the cells into two/three 50 ml Falcon polypropylene tubes. Thoroughly vortex your cell suspension in these tubes to ensure homogeneity before aliquoting. • 8. Pool the samples from the 50 nl tubes into one larger flat-bottom vessel and stir constantly on ice (4° C.). • 9. While stirring, aliquot 1 ml portions out into 1.5 ml cryogenic vials. • 10. Store vials at −70° C. until subsequtn asay. Retain one aliquot for protein concentration, Kd and Bmax determination before starting experiments using new batch of cells. Proetin concentration is determined using the Lowry method.
(§3) Required buffers: • Assay buffer; 50 mM Tris HCl, 120 mM NaCl and 5 mM KCl, pH 7.4 • 2. Binding protocol: Preliminary screening assays are performed using single replicates on duplicate plates. Dose-response binding assays are performed in a single replicates on duplicate OptiPlates (Perkin Elmer) using 0.1 nM to 3 μM of test drug.
(§4) a) To each well add 10 μL of test compound, blank compound (10 μM Fluoxetine), or assay buffer (50 mM Tris HCl, 120 mM NaCl and 5 mM KCl, pH 7.4. Each well is then supplemented with 40 μL of assay buffer.
(§5) The isotope solution is also disuted in 50 mM Tris HCl, 120 mM NaCl and 5 mM KCl, pH 7.4 • c) Resuspend membrane pellet in binding buffer to achieve a solution containing 5 μg of protein in 50 μL. This will yield a final protein concentration of 5 μg/well. • d) To each well add 0.5 mg of Wheatgerm Agglutinin (WGA) SPA beads in 50 μl of 50 mM Tris HCl, 120 mM NaCl and 5 mM KCl, pH 7.4 • e) Incubate plates, while gently shaking, for at least 1 hour so as to reach equilibrium. Plates can still be read if left to incubate overnight without loss of signal. • f) Count plates on TopCount.
(§6) 3H-Citallopram binding is expressed as percent of specific binding, with IC50 and Ki VALUES DETERMINED BY nonlinear regression analysis using the Activity Base software package. Specific binding is defined as total binding observed in the presence of 10 μM fluoxetine.
Assay [2] addresses T2, Human Serotonin Transporter (h5HT-T). Briefly: biochemical.
Description: as §1, §2, §3, §4, §5, §6
The next assay deals with T3, serotonin transporter (Rattus norvegicus, UniProt P31652).
T3 construct: displace ^3H-paroxetine from male rat frontal cortical membranes; from tissue; host or cells: male rat frontal cortex membranes
T3 sequence (P31652 whole entry): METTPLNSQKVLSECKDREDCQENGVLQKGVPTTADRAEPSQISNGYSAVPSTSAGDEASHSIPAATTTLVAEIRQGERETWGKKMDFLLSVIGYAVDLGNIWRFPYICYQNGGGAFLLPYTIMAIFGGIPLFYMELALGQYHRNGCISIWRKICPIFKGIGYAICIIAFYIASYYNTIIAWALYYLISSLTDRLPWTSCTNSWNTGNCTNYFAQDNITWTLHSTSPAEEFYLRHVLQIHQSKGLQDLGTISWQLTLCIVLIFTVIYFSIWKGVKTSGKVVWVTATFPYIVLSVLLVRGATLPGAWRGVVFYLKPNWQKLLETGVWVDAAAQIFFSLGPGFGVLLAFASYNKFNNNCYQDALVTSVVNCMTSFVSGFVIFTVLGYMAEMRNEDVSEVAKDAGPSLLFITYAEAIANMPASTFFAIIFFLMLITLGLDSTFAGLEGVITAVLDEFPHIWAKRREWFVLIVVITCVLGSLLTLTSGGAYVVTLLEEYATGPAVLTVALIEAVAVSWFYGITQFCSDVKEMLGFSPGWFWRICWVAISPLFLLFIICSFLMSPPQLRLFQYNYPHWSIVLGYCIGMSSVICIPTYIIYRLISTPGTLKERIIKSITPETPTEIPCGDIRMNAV
Briefly: Displacement of 3H-paroxetine from male rat frontal cortical membranes (serotonin transporter affinity). The class given is binding. The settings on record: 3H-paroxetine displacement, read-out: 5-HT Transporter Affinity Ki. The text has this: Affinity of Compounds of the Invention for the Serotonin Transporter
In general terms: Loss of bound radioactivity is the signal in a displacement assay; it reports binding, not function.

A further assay deals with T4, human 5HT1A receptors (Homo sapiens, UniProt P08908).
T4 construct: expressed in transfected cells; host or cells: CHO cells
T4 sequence (P08908 1-422): T1 sequence (P08908 1-422)
Briefly: Displacement of [3H] 8-OH-DPAT from 5HT1A receptor, CHO cells stably transfected with human 5HT1A receptors. The class given is binding. The conditions noted are these: [3H] 8-OH-DPAT displacement, CHO cells with human 5HT1A; read-out: 5HT1A Receptor Affinity Ki. The text has this:
High affinity for the serotonin 5HT1A receptor was established by testing the claimed compound's ability to displace [^3H] 8-OH-DPAT (dipropylamino-tetralin) from the 5HT1A serotonin receptor following a modification of the procedure of Hall et al., J. Neurochem. 44, 1685 (1985) which utilizes CHO cells stably transfected with human 5HT1A receptors.

In assay [3] the target is T5, cloned human 5HT1A receptors (Homo sapiens, UniProt P08908).
T5 construct: expressed in transfected cells
T5 sequence (P08908 1-422): T1 sequence (P08908 1-422)
Briefly: 35S-GTPγS binding assay, agonist/antagonist activity at 5HT1A receptors. The class given is biochemical. On the procedure:
Determination of […] or Antagonist Activity at 5HT1A Receptors
Antagonist or antagonist activity at 5HT1A receptors was established by using a ^35S-GTPγS binding assay similar to that used by Lazareno and Birdsall (Br. J. Pharmacol. 109: 1120, 1993), in which the test compound's ability to affect the binding of ^35S-GTPγS to membranes containing cloned human 5HT1A receptors was determined. Agonists produce an increase in binding whereas antagonists produce no increase but rather reverse the effects of the standard agonist 8-OH-DPAT. The test compound's maximum inhibitory effect is represented as the Imax, while its potency is defined by the IC50. The results of the three standard experimental test procedures described in the preceding three paragraphs were as follows: […]
For orientation: GTPγS is a poorly hydrolysed GTP analogue; its binding reports G protein activation.

On to “8-Fluoro-6-[(1-{[(2S)-8-methyl-2,3-dihydro[1,4]dioxino[2,3-f]quinolin-2-yl]methyl}piperidin-4-yl)methyl]-2H-1,4-benzoxazin-3(4H)-one [Example 21a]”, for which the Ki at h-5HT1A came to 15.5 nM; in assay [1], 68.2 nM.
As to “8-Fluoro-6-[(1-{[(2S)-8-methyl-2,3-dihydro[1,4]dioxino[2,3-f]quinolin-2-yl]methyl}piperidin-4-yl)methyl]-2H-1,4-benzoxazin-3(4H)-one [Example 21b]”, the Ki came out at 1.12 nM at h-5HT1A and 1.74 nM in assay [1].
For the molecule `Cc1ccc2c3c(ccc2n1)OC[C@H](CN1CCCC(Cc2ccc4c(c2)NC(=O)CC4)C1)O3` (stereo partly drawn) [Example 24, 7-[(1-{[(2S)-8-Methyl-2,3-dihydro[1,4]dioxino[2,3-f]quinolin-2-yl]methyl}piperidin-3-yl)methyl]-3,4-dihydroquinolin-2(1H)-one], the results for the inhibitory constant (Ki) (on h-5HT1A; in assay [2]) were 2.33 nM and 9.77 nM, respectively.
As for `Cc1ccc2c3c(ccc2n1)OC[C@H](CNC1CCN(c2ccc4c(c2)NC(=O)CO4)CC1)O3` [Example 18, 6-(4-{[(8-methyl-2,3-dihydro[1,4]dioxino[2,3-f]quinolin-2-yl)methyl]amino}piperidin-1-yl)-2H-1,4-benzoxazin-3(4H)-one dihydrochloride salt], the Ki is 35.2 nM on serotonin transporter and 0.93 nM on human 5HT1A receptors.
With `Cc1ccc2c3c(ccc2n1)OC[C@H](CN1CCC[C@H](Oc2ccc4c(c2)NC(=O)CO4)C1)O3` [Example 26, 6-{[(3S)-1-{[(2S)-8-Methyl-2,3-dihydro[1,4]dioxino[2,3-f]quinolin-2-yl]methyl}piperidin-3-yl]oxy}-2H-1,4-benzoxazin-3(4H)-one], the figures for the Ki (at h-5HT1A; in assay [2]) were 361 nM and 376 nM, respectively.
As for `Cc1ccc2c3c(ccc2n1)OC[C@H](CN1CCC(Oc2ccc4c(c2)N(C)C(=O)CO4)CC1)O3` [Example 5, 4-Methyl-6-[(1-{[(2S)-8-methyl-2,3-dihydro[1,4]dioxino[2,3-f]quinolin-2-yl]methyl}piperidin-4-yl)oxy]-2H-1,4-benzoxazin-3(4H)-one dihydrochloride salt], the inhibition constant (Ki) on serotonin transporter came to 11 nM; at human 5HT1A receptors, 0.54 nM.
As for `Cc1ccc2c3c(ccc2n1)OC[C@H](CN1C2CCC1CC(Cc1ccc4c(c1)NC(=O)CC4)C2)O3` (stereo partly drawn) [Example 23, 7-[(8-{[(2S)-8-Methyl-2,3-dihydro[1,4]dioxino[2,3-f]quinolin-2-yl]methyl}-8-azabicyclo[3.2.1]oct-3-yl)methyl]-3,4-dihydroquinolin-2(1H)-one], the inhibitory constant (Ki) at h-5HT1A amounted to 2.42 nM; in assay [2], 12.4 nM.
Regarding `Cc1ccc2c3c(ccc2n1)OC[C@H](CN1CCCC(Cc2ccc4c(c2)NC(=O)CO4)C1)O3` (stereo partly drawn) [Example 16, 6-[(1-{[(2S)-8-Methyl-2,3-dihydro[1,4]dioxino[2,3-f]quinolin-2-yl]methyl}piperidin-3-yl)methyl]-2H-1,4-benzoxazin-3(4H)-one dihydrochloride salt], the inhibitory constant (Ki) on serotonin transporter was found to be 5 nM; at human 5HT1A receptors it was 0.4 nM.
In the same order, the values of `Cc1ccc2c3c(ccc2n1)OC[C@H](CN1CCC(Oc2ccc4c(c2)NC(=O)CC4)CC1)O3` [Example 17, 7-[(1-{[(2S)-8-Methyl-2,3-dihydro[1,4]dioxino[2,3-f]quinolin-2-yl]methyl}piperidin-4-yl)oxy]-3,4-dihydroquinolin-2(1H)-one dihydrochloride salt] are 38.1 nM and 0.28 nM.
For the molecule `Cc1ccc2c3c(ccc2n1)OC[C@H](CN1CCCC(Cc2ccc4c(c2)N(C)C(=O)CO4)C1)O3` (stereo partly drawn) [Example 15, 4-Methyl-6-[(1-{[(2S)-8-methyl-2,3-dihydro[1,4]dioxino[2,3-f]quinolin-2-yl]methyl}piperidin-3-yl)methyl]-2H-1,4-benzoxazin-3(4H)-one dihydrochloride salt], the figures for the inhibition constant Ki on serotonin transporter and at human 5HT1A receptors were 82 nM and 0.68 nM, respectively.
On to `Cc1ccc2c3c(ccc2n1)OC[C@H](CN1CCC(Cc2ccc4c(c2)NC(=O)CO4)CC1)O3` [Example 2, 6-[(1-{[(2S)-8-Methyl-2,3-dihydro[1,4]dioxino[2,3-f]quinolin-2-yl]methyl}piperidin-4-yl)methyl]-2H-1,4-benzoxazin-3(4H)-one dihydrochloride], for which the Ki came out at 8.9 nM on serotonin transporter and 0.16 nM on human 5HT1A receptors.
Regarding `Cc1ccc2c3c(ccc2n1)OC[C@H](CN1CCC[C@@H](Oc2ccc4c(c2)NC(=O)CO4)C1)O3` [Example 25, 6-{[(3R)-1-{[(2S)-8-Methyl-2,3-dihydro[1,4]dioxino[2,3-f]quinolin-2-yl]methyl}piperidin-3-yl]oxy}-2H-1,4-benzoxazin-3(4H)-one], the inhibition constant (Ki) on h-5HT1A came out at 13.8 nM; in assay [2], 146 nM.
With `Cc1ccc2c3c(ccc2n1)OC[C@H](CN1CCC(Cc2ccc4c(c2)NC(=O)CC4)CC1)O3` [Example 20, 7-[(1-{[(2S)-8-Methyl-2,3-dihydro[1,4]dioxino[2,3-f]quinolin-2yl]methyl}piperidin-4-yl)methyl]-3,4-dihydroquinolin-2(1H)-one], the figures for the Ki (at h-5HT1A; in assay [2]) were 1.15 nM and 5.88 nM, respectively.
As to `Cc1ccc2c3c(ccc2n1)OC[C@H](CN1CCC(Oc2ccc4c(c2)NC(=O)CO4)CC1)O3` [Example 1, 6-[(1-{[(2S)-8-methyl-2,3-dihydro[1,4]dioxino[2,3-f]quinolin-2-yl]methyl}piperidin-4-yl)oxy]-2H-1,4-benzoxazin-3(4H)-one dihydrochloride salt], the Ki on serotonin transporter was 9.5 nM; on human 5HT1A receptors it was 0.26 nM. Also, the IC50 in assay [3] (reversal of 8-OH-DPAT effect, read-out: 5HT1A Function IC50) was found to be 59.3 nM. The “5HT1A Function Imax (maximum inhibitory effect)” value in assay [3] (value in parentheses) stood at 97.
Turning to `Cc1ccc2c3c(ccc2n1)OC[C@H](CNCCCCOc1ccc2c(c1)NC(=O)CO2)O3` [Example 6, 6-[4-({[(2S)-8-Methyl-2,3-dihydro[1,4]dioxino[2,3-f]quinolin-2-yl]methyl}amino)butoxy]-2H-1,4-benzoxazin-3(4H)-one dihydrochloride salt], the Ki at serotonin transporter was found to be 11.9 nM; at human 5HT1A receptors it was 0.25 nM.

Broadly, the Ki is the dissociation constant of the complex between target and ligand, obtained from inhibition or displacement. The term IC50 denotes the concentration at which inhibition is half-maximal.
